According to patent US20100022559A1, “BISOXIMES AS FUNGICIDES” (BAYER CROPSCIENCE AG, priority 2006, published 2010):
Each block holds one compound with its values, some of them ahead of it.

Experiment: logP determination by HPLC on a reversed-phase column (C 18), EEC Directive 79/831 Annex V.A8
Assay type: physicochemical
Protocol: The stated logP values were determined in accordance with EEC Directive 79/831 Annex V.A8 by HPLC (high performance liquid chromatography) on a reversed-phase column (C 18). Temperature: 43° C.

[1] = [a] acidic range, pH 2.3, 0.1% aqueous phosphoric acid and acetonitrile
[2] = [b] LC-MS, acidic range, pH 2.7, 0.1% aqueous formic acid and acetonitrile
[3] = [c] LC-MS, neutral range, pH 7.8, 0.001 molar aqueous ammonium bicarbonate solution and acetonitrile
[4] = method marker [b], isomer A / isomer B / isomer mixture as noted in the cell
[5] = method marker [a] (footnote not shown), isomer A / isomer B / isomer mixture as noted in the cell

- logP (method marked [b] in Table 1): 4.57^[b]
- logP (method marked [c] in Table 1): 7.18^[c]
Compound: CC(=NOCC(CON=C(C)c1ccc(C)c(C)n1)C(C)C)c1ccc(C)c(C)n1 (stereo not drawn) [Compound 681]

- logP (method marked [b] in Table 1): 3.62^[b]
- logP (method marked [c] in Table 1): 5.45^[c]
Compound: CC(=NOCC(CON=C(C)c1nc(C)ccc1C)c1ccccc1)c1nc(C)ccc1C (single isomer, unassigned) [compound 755]

- logP [1]: 0.27^[a]
- logP [2]: 0.27^[b]
- logP [3]: 1.72^[c]
Compound: C/C(=N\OCCCON)c1cccc(C)n1 [XII-10]

- logP [4]: 5.75^[b]
Compound: C=C(CON=C(C)c1ncc(Cl)cc1Cl)CON=C(C)c1ncc(Cl)cc1Cl [compound 153]

- logP [5]: 4.00^[a]
Compound: CC(=NOCC(F)(F)CON=C(C)c1cccc(C)n1)c1cccc(C)n1 [compound 86]

- logP (value marked [b]): 1.71^[b]
Compound: CC(=NOCCCCON=C(C)c1cccc(C)n1)c1ccnc(C)c1 [compound 338]

- logP (value marked [b]): 4.72^[b]
Compound: CCc1cccc(C(C)=NOCCCCON=C(C)c2cccc(C)n2)n1 [compound 329]

- logP [4]: 2.55^[b]
Compound: C=C(CON=C(C)c1cccc(C)n1)CON=C(N)c1nc(C)c2c(n1)CCCC2 [Compound 182]

- logP (method marked [b] in Table 1): 5.97^[b]
Compound: CCCC(=NOCC1(CON=C(CCC)c2cccc(C)n2)CC(C=C(C)C)=NO1)c1cccc(C)n1 (stereo not drawn) [compound 625]

- logP (value marked [b]): 5.65^[b]
Compound: CC(=NOCC(C)(C)CON=C(C)c1cccc(C)n1)c1ccc2c(c1)CC(C)O2 (stereo not drawn) [compound 482]

- logP (method marked [b] in Table 1): 3.89^[b]
- logP (method marked [c] in Table 1): 6.79^[c]
Compound: CCC(CON=C(C)c1ccc(C)c(C)n1)CON=C(C)c1ccc(C)c(C)n1 (stereo not drawn) [Compound 678]

- logP (method marked [b] in Table 1): 4.51^[b]
Compound: CC(=NOCC1(CON=C(C)c2ccc(C)c(C)n2)CC(c2ccc(Cl)cc2)=NO1)c1ccc(C)c(C)n1 (stereo not drawn) [compound 633]

- logP (value marked [b]): 4.91^[b]
Compound: COc1ccc(C(C)=NOCCCCCCON=C(C)c2cccc(C)n2)cc1OC [compound 392]

- logP (method marked [b] in Table 1): 4.51^[b]
Compound: C/C(=N\OCC1(CO/N=C(\C)c2ccc(C)c(C)n2)CC(c2cccc(Cl)c2)=NO1)c1ccc(C)c(C)n1 [compound 635]

- logP (value marked [b]): 4.91^[b]
Compound: CC(=NOCCCCON=C(C)c1cccc(C)n1)c1ccc2c(c1)CC(C)O2 (stereo not drawn) [compound 441]

- logP (value marked [b]): 4.63^[b]
Compound: CC(=NOCC(CON=C(C)c1cccc(C)n1)c1ccccc1)c1cccc(C)n1 (stereo not drawn) [Compound 264]

- logP (value marked [a]): 2.25^[a]
Compound: C=C(CON=C(OCC)c1cccc(C)n1)CON=C(OCC)c1ccc(C)c(C)n1 [Compound 843]

- logP [4]: 3.63^[b]
Compound: CC(=NOCCON=C(C)c1nc(C)cs1)c1nc(C)cs1 [compound 52]

- logP (value marked [a]): 6.65^[a]
- logP (value marked [b]): 6.65^[b]
- logP (value marked [c]): 6.61^[c]
Compound: C#Cc1cc(C)nc(C(C)=NOCC(C)CON=C(C)c2cc(C#C)cc(C)n2)c1 (stereo not drawn) [compound 873]

- logP [4]: 3.23^[b] (isomer A)
Compound: C=C(CON=C(C)c1cccc(C)n1)CON=C(CC)c1ncccc1C (single isomer, unassigned) [compound 143]

- logP (value marked [b]): 4.72^[b] (isomer B)
Compound: C=C(CON=C(C)c1cccc(C)n1)CON=C(c1cccc(C)n1)C(C)C [Compound 359]

- logP [4]: 4.43^[b]
Compound: C=C(CON=C(C)c1cccc(C)n1)CON=C(C)c1cccc(C(C)=O)n1 [Compound 117]

- logP [4]: 2.70^b]
Compound: C=C(CON=C(C)c1cccc(C)n1)CON=C(N)c1nc(C)cs1 [compound 193]

- logP (value marked [b]): 3.15^b]
Compound: CC(=NOCCCCCCON=C(C)c1cccc(C)n1)c1cccnc1 [compound 396]

- logP [4]: 1.98^[b]
Compound: C=C(CON=C(C)c1cc(C)cc(C)n1)CON=C(C)c1cc(C)cc(C)n1 [Compound 219]

- logP (value marked [b]): 3.99^[b]
Compound: CCC(=NOCC(C)CON=C(C)c1cccc(C)n1)c1ncccc1C (stereo not drawn) [compound 425]

- logP (value marked [a]): 2.38^[a]
Compound: C=C(CON=C(C)c1cccc(C)n1)CON=C(N)c1ccc(C)c(C)n1 [compound 808]

- logP [5]: 2.22^[a]
Compound: CC(=NOCCON=C(C)c1cccc(C)n1)c1cccc(C)n1 (mixture of isomers) [Compound 13]

- logP [5]: 4.31^[a]
Compound: CCOC(=O)C(=NOCCCON=C(C(=O)OCC)c1cccc(C)n1)c1cccc(C)n1 [compound 76]

- logP [1]: 0.61^[a]
- logP [2]: 0.61^[b]
- logP [3]: 2.42^[c]
Compound: C/C(=N\OCC1(CON)CC1)c1cc(C)cc(C)n1 [XII-12]

- logP (value marked [b]): 2.37^[b]
Compound: CC(=NOCC(C)CON=C(C)c1cccc(C)n1)c1cncc(C)c1 (stereo not drawn) [compound 431]

- logP (value marked [b]): 3.11^[b]
Compound: CC(=NOCCCCON=C(C)c1cccc(C)n1)c1ccccn1 [Compound 376]

- logP [1]: 2.69^[a]
- logP [2]: 2.69^[b]
- logP [3]: 3.92^[c]
Compound: C/C(=N\OCC(C)(C)CON)c1cc(C(F)(F)F)cc(C)n1 [XII-16]

- logP (method marked [b] in Table 1): 2.55^[b]
Compound: CC(=NOCC1(CON=C(C)c2cc(C)cc(C)n2)CC(c2ccccc2)=NO1)c1cc(C)cc(C)n1 (stereo not drawn) [compound 643]

- logP (value marked [a]): 7.36^[a]
- logP (value marked [c]): 7.36^[c]
Compound: CC(=NOCC(C)CON=C(C)c1cc(Cl)cc(C)n1)c1cc(Cl)cc(C)n1 (stereo not drawn) [compound 792]

- logP (value marked [b]): 1.80^[b]
Compound: CC(=NOCC(C)CON=C(C)c1cccc(C)n1)c1ccnc(C)c1 (stereo not drawn) [compound 432]

- logP (method marked [b] in Table 1): 5.37^b]
- logP (method marked [c] in Table 1): 6.34^[c]
Compound: CC(=NOCC(CON=C(C)c1cccc(C)n1)Cc1ccccc1)c1cccc(C)n1 (stereo not drawn) [Compound 583]

- logP [1]: 0.78^[a]
- logP [2]: 0.78^[b]
- logP [3]: 2.11^[c]
Compound: C/C(=N\OCC1(CON)CC1)c1cccc(C)n1 [XII-13]

- logP (value marked [b]): 3.65^[b]
Compound: CC(=NOCC(C)(C)CON=C(C)c1cccc(C)n1)c1cc(C)ccn1 [compound 409]

- logP (method marked [b] in Table 1): 2.62^[b]
Compound: CC(=NOCC1(CON=C(C)c2cc(C)cc(C)n2)CC(C(C)(C)C)=NO1)c1cc(C)cc(C)n1 (stereo not drawn) [compound 642]

- logP (method marked [b] in Table 1): 4.51^[b]
- logP (method marked [c] in Table 1): 5.95^[c]
Compound: CC(=NOCC(CON=C(C)c1nc(C)ccc1C)C(C)C)c1nc(C)ccc1C (single isomer, unassigned) [Compound 753]

- logP (value marked [b]): 1.88^[b]
Compound: C=C(CON=C(C)c1ccncc1)CON=C(C)c1cccc(C)n1 [compound 467]

- logP (method marked [b] in Table 1): 1.88^[b]
Compound: CCC1=NOC(CON=C(C)c2cc(C)cc(C)n2)(CON=C(C)c2cc(C)cc(C)n2)C1 (stereo not drawn) [Compound 639]

- logP (value marked [b]): 2.59^[b]
Compound: CC(=NOCC(C)CON=C(C)c1nccc(C)n1)c1cccc(C)n1 (stereo not drawn) [compound 506]

- logP (value marked [b]): 4.10^[b]
Compound: CCC(=NOCCCCON=C(C)c1cccc(C)n1)c1cccc(C)n1 [compound 333]

- logP (value marked [a]): 6.26^[a]
Compound: CCCC(=NOCC(C)CON=C(CCC)c1ccc(C)c(C)n1)c1ccc(C)c(C)n1 (stereo not drawn) [Compound 262]

- logP (value marked [a]): 6.58^[a]
- logP (value marked [b]): 6.58^[b]
- logP (value marked [c]): 7.36^[c]
Compound: CC(=NOCC(C)CON=C(C)c1cc(Cl)cc(C)n1)c1cccc(C)n1 (stereo not drawn) [compound 877]

- logP [5]: 2.66^[a]
Compound: CC(=NOCCCON=C(C)c1cccc(C)n1)c1cccc(C)n1 [Compound 14]

- logP (method marked [b] in Table 1): 6.51^[b]
Compound: CCCC(=NOCC1(CON=C(CCC)c2cccc(C)n2)CC(c2ccccc2Cl)=NO1)c1cccc(C)n1 (stereo not drawn) [compound 623]

- logP (value marked [a]): 2.06^[a]
Compound: CC(=NOC(=O)NCCCC(C)CNC(=O)ON=C(C)c1cc(C)cc(C)n1)c1cc(C)cc(C)n1 (stereo not drawn) [compound 862]

- logP (value marked [b]): 1.88^[b]
Compound: CC(=NOCCCCON=C(C)c1cncc(C)n1)c1cccc(C)n1 [compound 453]

- logP (value marked [b]): 4.82^[b]
Compound: C=C(CON=C(C)c1cccc(C)n1)CON=C(Cc1ccccc1)c1ncccc1C [compound 349]

- logP (value marked [b]): 4.51^[b]
Compound: CC(=NOCC(C)(C)CON=C(c1ccccc1)c1ncccc1C)c1cccc(C)n1 [compound 365]

- logP [4]: 2.21^[b]
Compound: CC(=NOCCON=C(C)c1ccccn1)c1ccccn1 [compound 30]

- logP (value marked [a]): 6.47^[a]
Compound: CC(=NOCC(C)(C)CON=C(C)c1cccc(Cc2ccccc2)n1)c1cccc(C)n1 [Compound 364]

- logP [4]: 3.26^[b]
Compound: CON=C(CON=C(C)c1cccc(C)n1)CON=C(C)c1cccc(C)n1 [compound 113]

- logP (value marked [b]): 4.41^[b]
Compound: C/C(=N\OCC(C)(C)CO/N=C(\C)c1cncc(C)n1)c1cccc(C)n1 [compound 492]

- logP (method marked [a] in Table 1): 5.69^[a]
Compound: CCC(=NOCC1(CON=C(CC)c2cccc(C)n2)CC(c2ccccc2Cl)=NO1)c1cccc(C)n1 (stereo not drawn) [compound 654]

- chromatographic logP (reversed-phase HPLC column (C 18), HCO2H, HPLC reversed-phase column (C 18), 43° C., read-out: logP (HCO2H)): 3.33
Compound: CC(=NOCC(C)(C)CO/N=C(\C)c1cccc(C)n1)c1cc(C)cc(C)n1 [(1E/Z)-1-(4,6-dimethylpyridin-2-yl)ethanone O-[2,2-dimethyl-3-({[(1E)-1-(6-methylpyridin-2-yl)ethylidene]amino}oxy)propyl]oxime]

- logP (value marked [b]): 4.68^[b]
Compound: CC(=NOCCCCON=C(C)c1cccc(C)n1)c1ccccc1 [compound 385]

- logP (method marked [b] in Table 1): 5.01^[b]
- logP (method marked [c] in Table 1): 7.05^[c]
Compound: CC(=NOCC(CON=C(C)c1ccc(C)c(C)n1)Cc1ccccc1)c1ccc(C)c(C)n1 (stereo not drawn) [Compound 581]

- logP [4]: 1.94^[b]
Compound: CC(=NOCCCON=C(C)c1cc(C)ccn1)c1cc(C)ccn1 [compound 35]

- logP (value marked [b]): 2.66^[b]
Compound: CC(=NOCCCCON=C(C)c1cccc(C)n1)c1cc(C)ccn1 [Compound 373]

- logP (value marked [b]): 6.22^[b]
Compound: CC(=NOCC(C)(C)CON=C(C)c1cccc(C)n1)c1ccc(Cl)cc1 [compound 485]

- logP (value marked [a]): 3.10^[a]
Compound: C=C(CON=C(c1cccc(C)n1)C1CC1)CON=C(c1cccc(C)n1)C1CC1 (mixture of isomers) [Compound 312]

- logP (value marked [b]): 3.05^[b]
Compound: COc1cc(O)nc(C(C)=NOCC(C)CON=C(C)c2nc(OC)cc(OC)n2)n1 (stereo not drawn) [compound 271]

- logP (method marked [a] in Table 1): 2.05^[a]
Compound: CC(=NOCC(C)CON=C(C)c1nc2ccccc2[nH]1)c1nc2ccccc2[nH]1 (mixture of isomers) [compound 584]

- logP [1]: 0.37^[a]
- logP [2]: 0.37^[b]
- logP [3]: 2.49^[c]
Compound: C/C(=N\OCC(C)CON)c1ccc(C)c(C)n1 (racemic) [XII-7]

- logP (value marked [a]): 4.06^[a]
Compound: C=C(CON=C(N)c1ccc(C)c(C)n1)CON=C(Cl)c1cccc(C)n1 [compound 831]
